Measurements as given in US12702671B2, “Calcineurin inhibitors of the setron family for the treatment of hearing loss” (SENSORION, priority 2015, dated 2026).
Structures can show the parent of a compound that is named as a salt.

What was measured:
calcineurin = assay: Calcineurin phosphatase activity in cerebellar granule neurons after 4 DIV (malachite green colorimetric assay, Test A); format: cell-based, Wistar rat
Experimental: According to Test A, phosphatase calcineurin activity is assessed in cerebellar granule neurons (CGNs) using a colorimetric assay kit based on quantification of the green complex formed between malachite green, molybdate and free phosphate released. CGNs are detached from plates, for example by scraping, rinsed in ice-cold tris buffer solution (TBS) and counted. About 10 million cells are lysed in 1 ml of the provided lysis buffer and centrifuged at 150,000×g at 4° C. for 45 min, and the supernatant may be stored at −70° C. until analysis. Prior to calcineurin activity assay, free phosphate and nucleotides are removed from cellular extract by gel filtration. To ensure the complete removal of phosphate, malachite green reagent may be added, which will turn the color green in presence of phosphate. A specific calcineurin substrate is added to phosphate-free cellular extracts and after appropriate incubation period, malachite green reagent is applied. The rapid green color formation from the reaction is measured, for example on a spectrophotometer. The developed color is proportional to the calcineurin phosphatase activity of samples. Absorbance values, read at 620 nm, may thus be transformed to percentage calcineurin activity relative to K25 control treatment (100%). Cerebellar granule cells were dissociated from the cerebellae of 7-day-old Wistar rat pups as described (Kramer et al. 2003, Mol Cell Neurosci 23:325-330). Briefly, the cerebellae were removed, rinsed in HBSS-BSA, minced, digested with 0.025% trypsin and incubated at 37° C. for 15 min. To stop the digestion, DMEM containing 10% fetal calf serum was added; then a single cell suspension was obtained through pipetting up and down the sedimented tissue. Following centrifugation, cells were counted using trypan blue exclusion test in a Burker chamber. This method is based on the ability of viable cells to exclude trypan blue due to their intact cell membranes, leaving them unstained while nonviable cells take up the dye. Cells at 3.2×10^5/cm^2 were seeded in DMEM Hepes modification supplemented with 10% fetal calf serum, 100 μg/ml pyruvate, and 100 μg/ml gentamicin on Polystyrene 12-well tissue culture plates (CELLSTAR) coated with poly-L-lysine. After 24 h, 10 μM cytosine arabinofuranoside was added to inhibit the growth of non-neuronal cells. All pharmacological interventions begun at this time in the culture medium containing 25 mM KCl (K25), which caused depolarization of granule cells and consequently activated gene expression machinery. Moreover, the viability of granule neurons was higher in this milieu and therefore provides the possibility to maintain cells for several days. Indeed, 25 mM KCl is required in the medium for CGN cultures to maintain adequate calcineurin activity and cell maturation and depolarization (Kramer et al., 2003, Mol Cell Neurosci 23:325-330; Vallano et al. 2006, Neuropharmacology 50: 651-660). Cultures received simple medium (K25 control) or medium containing a setron compound in HCl salt form (Tocris Bioscience, Bristol, UK) at concentrations of 10 nM, 100 nM or 1000 nM for 4 days in vitro (DIV). Phosphatase calcineurin activity was assessed in CGNs using a colorimetric assay kit based on quantification of the green complex formed between malachite green, molybdate and free phosphate released. CGNs were detached from plates by scraping, rinsed in ice-cold tris buffer solution (TBS) and counted. About 10 million cells are lysed in 1 ml of the provided lysis buffer and centrifuged at 150,000×g at 4° C. for 45 min, and the supernatant was stored at −70° C. until analysis. Prior to calcineurin activity assay, free phosphate and nucleotides were removed from cellular extract by gel filtration. To ensure the complete removal of phosphate, malachite green reagent was added, which will turn the color green in presence of phosphate. […]

[1] = test system: acoustic trauma induced hearing loss; assay: Distortion product otoacoustic emissions (DPOAE) amplitudes after acoustic trauma; format: in vivo, Wistar rats
Experimental: All experiments were performed using 7 week old male Wistar rats (CERJ, Le Genest, France) in accordance with the French Ministry of Agriculture regulations and European Community Council Directive no. 86/609/EEC, OJL 358. The rats were fed a standard diet ad libitum and maintained on a 12 h light-dark cycle.
Auditory Brainstem Reponses (ABR) and Distortion Product Otoacoustic Emissions (DPOAE) were recording using a RZ6 Auditory Workstation (Tucker-Davis Technologies, Alachua, FL, USA) with animals deeply anesthetized using 90 mg/kg ketamine and 10 mg/kg xylazine and placed on a 35° C. recirculating heating pad inside a sound attenuating cubicle (Med Associates Inc., St. Albans, VT, USA) throughout the experiment.
DPOAEs were recorded and using ER10B+ Low Noise DPOAE microphone (Etymotic Research, Inc., Elk Grove Village, IL, USA) with acoustic stimuli delivered by two calibrated MF-1 speakers in closed-field configuration (Tucker-Davis Technologies, Alachua, FL, USA). DPOAEs were recorded at fixed stimulus levels (L1=L2=70 dB SPL), with an f2/f1 ratio of 1.2. Responses were recorded at 4, 8, 16, 24 and 32 kHz.
Animals were exposed to 121 dB octave band noise (8-16 kHz) for 2 h in groups of 4 rats, placed in individual compartments of a custom built circular cage placed on a 30 cm diameter platform rotating at 3 turns/minute (Aqila Innovation, Valbonne, France). The calibrated octave band noise generated by the RZ6 SigGen software was further amplified by a Crown D-75 amplifier in bridge mode (Crown Audio, Elkhart, IN, USA) and delivered by four Beyma CP16 compression tweeters (Acustica Beyma S. L., Moncada, Valencia, Spain) positioned 39 cm above the rotating platform, each 10 cm from the platform center.
Animals were treated by intraperitoneal injection daily for 14 days beginning immediately after acoustic trauma induction and subsequently repeated every 24 hours. The setron compounds granisetron HCl, ondansetron HCl, tropisetron HCl and azasetron HCl (Tocris Bioscience, Bristol, UK) were delivered dissolved in saline solution (1.6 mL/kg) while Tacrolimus (Selleck Chemicals, Houston, TX, USA) was dissolved in solution composed of 10% ethanol-100%/10% Kolliphor EL/1% Tween 80/79% saline (1.0 mL/kg). Placebo treated animals received injections of 1.6 mL/kg saline following the same treatment schedule.
Statistical analysis was performed using two-way ANOVA (Audiometry data: frequency and treatment group. Cochleograms: normalized distance from apex and treatment group) followed by Holm-Sidak post-hoc test for multiple comparisons. Results are given as mean±SEM and a p value less than or equal to 0.05 considered significant.
Baseline line audiometry (ABR and DPOAE measures) was performed for each animal 3 days before acoustic trauma was induced. Subsequently, audiometry measures were repeated 24 h and 14 days after acoustic trauma.
To quantify and compare the difference in treatment effects between groups while taking into account individual baseline and trauma variability, the hearing loss (ABR threshold shift & DPOAE amplitude loss) at D14 relative to baseline, as well as the functional recovery of hearing from 24 h to D14 (ABR threshold shift & DPOAE amplitude loss) were determined for all treatment groups.

[2] = i.p. daily for 14 days after acoustic trauma, same doses as E4

effect on calcineurin phosphatase activity (calcineurin; CGNs in K25 medium, 10, 100 or 1000 nM for 4 DIV, relative to K25 control (100%)): significantly inhibited
Compound: CN1C(=O)COc2c(C(=O)NC3CN4CCC3CC4)cc(Cl)cc21 (stereo not drawn) [azasetron HCl, N-(1-azabicyclo[2.2.2]octan-8-yl)-6-chloro-4-methyl-3-oxo-1,4-benzoxazine-8-carboxamide]
change of calcineurin inhibition with increasing concentration (calcineurin; CGNs, 4 DIV, 10-1000 nM): increased to different degree with increasing concentrations
concentrations at which calcineurin inhibition was significant (calcineurin; CGNs, 4 DIV, tested at 10, 100, 1000 nM, p<=0.05 vs K25 control): 1000 nM
reduction of DPOAE amplitudes loss compared to placebo treatment ([1]; day 14, i.p. daily for 14 days after acoustic trauma): ~ 60%
DPOAE amplitude loss from baseline to day 14 compared to placebo [1, 2]: significantly reduced loss of DPOAE amplitudes
recovery of DPOAE amplitudes from 24 h post trauma to day 14 compared to placebo [1, 2]: significantly improved recovery of DPOAE amplitudes
